According to US8680111B2 (Pfizer Inc., priority 2012, dated 2014):

Tests used:
[1] = target: T1, human recombinant wild-type ALK kinase domain (amino acids 1093-1411) (Homo sapiens, UniProt Q9UM73); test: Wild-type ALK enzyme assay (microfluidic mobility shift); format: biochemical; conditions: ATP 60 μM, competitive inhibition fit, read-out: WT ALK enzyme assay (Ki)
T1 construct: ALK kinase domain (amino acids 1093-1411); made in house
Method: The reactions were incubated for 1 h at room temperature, stopped by the addition of 0.1 M EDTA, pH 8, and the extent of reactions (˜15-20% conversion with no inhibitor) was determined after electrophoretic separation of the fluorescently labeled peptide substrate and phosphorylated product on an LabChip EZ Reader II (Caliper Life Sciences, Hopkinton, Mass.).

[2] = target: T2, WT EML4-ALK (NIH-3T3 EML4-ALK wt v1 cells) (Homo sapiens, UniProt Q9UM73); test: Cellular phospho-ALK (Tyr1604) ELISA assay for WT EML4-ALK; format: cell-based; conditions: 1 hour, read-out: ELISA assay for WT EML4-ALK (IC50)
T2 construct: expressed in transfected cells; the other entry of the earlier key: EML4 (Q9HC35, Echinoderm microtubule-associated protein-like 4)

[3] = target: T3, human recombinant L1196M ALK kinase domain (amino acids 1093-1411) (Homo sapiens, UniProt Q9UM73, L1196M); test: L1196M mutant ALK enzyme assay (microfluidic mobility shift); format: biochemical; conditions: ATP 60 μM, 0.5 nM enzyme, competitive inhibition fit; read-out: L1196M ALK enzyme assay (Ki)
T3 construct: ALK kinase domain (amino acids 1093-1411); made in house

[4] = target: T4, L1196M EML4-ALK (NIH-3T3 EML4-ALK v1 L1196M cells) (Homo sapiens, UniProt Q9UM73, L1196M); test: Cellular phospho-ALK (Tyr1604) ELISA assay for L1196M EML4-ALK; format: cell-based; conditions: NIH-3T3 EML4-ALK v1 L1196M cells, 1 hour, phospho-ALK (Tyr1604); read-out: ELISA assay for L1196M EML4-ALK (IC50)
T4 construct: expressed in transfected cells; the other entry of the earlier key: EML4 (Q9HC35, Echinoderm microtubule-associated protein-like 4)
Method: Cellular Phospho-ALK (Tyr1604) ELISA Assay for EML4-ALK:
The cells were maintained at 37° C. in a 5% CO2 incubator in DMEM (Invitrogen, Carlsbad, Calif.) medium supplemented with 1% L-glutamine, 1% penicillin and streptomycin, 1 ug/ml puromycin and 10% new born calf serum (NCS) in T-75 flasks.
Cells were washed with PBS and re-suspended in DMEM medium supplemented with 0.5% NCS and 1% pen/strep and seeded into 96-well plates at density of 20,000 cells/well/100 μl and incubated in the incubator at 37° C. and 5% CO2. After 20 hours of incubation, 100 μl of assay media (DMEM) in presence of designated PF-compounds concentrations or controls (DMSO) were added into plates and incubated for 1 hour in the incubator. Media was then removed and lysis buffer, containing phosphatase inhibitors and phenylmethanesulfonyl fluoride (PMSF), was added to wells and shaken at 4° C. for 30 minutes to generate protein lysates.
A phospho-ALK (Tyr1604) rabbit antibody was coated onto the 96-well microplates. 50 μl of cell lysates were added to the antibody coated plate and incubated at room temperature for 2 hours. Following extensive washing with 0.1% Tween 20 in PBS to remove unbound materials, ALK mouse mAb was added to detect captured phospho-ALK (Tyr1604) and phospho-ALK fusion proteins. Anti-mouse IgG, HRP-linked antibody was then used to recognize the bound detection antibody. Finally, the chemiluminescent reagent was added and incubated for 10 minutes for signal development. The assay plates were read in the Envision plate reader in the luminescent mode. IC50 values were calculated by a concentration-response curve fitting using a four-parameter analytic method.

Row | SMILES | Ki [1] [nM] | IC50 [2] [nM] | Ki [3] [nM] | IC50 [4] [nM]
1 | COc1snc2c1-c1cnc(N)c(c1)O[C@H](C)c1cc(F)ccc1C(=O)N(C)C2 [Example 3, (10R)-7-amino-12-fluoro-3-methoxy-10,16-dimethyl-16,17-dihydro-8,4-(metheno)isothiazolo[4,3-h][2,5,11]benzoxadiazacyclotetradecin-15(10H)-one] | < 0.2 | 0.99 | 0.2 | 22.2
2 | CN1Cc2nn(C)c(C#N)c2-c2cnc(N)c(c2)OCc2cc(F)ccc2C1=O [Example 4, 7-amino-12-fluoro-2,16-dimethyl-15-oxo-10,15,16,17-tetrahydro-2H-8,4-(metheno)pyrazolo[4,3-h][2,5,11]benzoxadiazacyclotetradecine-3-carbonitrile] | < 0.2 | 28.1 | 1.2 | 184
3 | CN1Cc2ccc(S(C)(=O)=O)cc2-c2cnc(N)c(c2)OCc2cc(F)ccc2C1=O [Example 5, 8-amino-3-fluoro-17-methyl-13-(methylsulfonyl)-16,17-dihydro-7,11-(metheno)dibenzo[g,l][1,4,10]oxadiazacyclotetradecin-18(5H)-one] | 0.34 | 12.1 | 3.4 | 156
4 | CC1Oc2cc(cnc2N)-c2ccccc2CN(C)C(=O)c2ccc(F)cc21 (stereo not shown) [Example 8, 8-amino-3-fluoro-5,17-dimethyl-16,17-dihydro-7,11-(metheno)dibenzo[g,l]-[1,4,10]-oxadiazacyclotetradecin-18(5H)-one] | 0.9 | 12.1 | 10 | 680
5 | CCn1ncc2c1-c1cnc(N)c(c1)O[C@H](C)c1cc(F)ccc1C(=O)N(C)C2 [Example 27, (10R)-7-amino-3-ethyl-12-fluoro-10,16-dimethyl-16,17-dihydro-3H-8,4-(metheno)pyrazolo[3,4-h][2,5,11]benzoxadiazacyclotetradecin-15(10H)-one] | 0.38 | 9.15 | 5.3 | 157
6 | COc1nccc2c1-c1cnc(N)c(c1)O[C@H](C)c1cc(F)ccc1C(=O)N(C)C2 [Example 34, (11R)-8-amino-13-fluoro-4-methoxy-11,17-dimethyl-17,18-dihydro-9,5-(metheno)pyrido[3,4-h][2,5,11]benzoxadiazacyclotetradecin-16(11H)-one] | 0.56 | 36.1 | 15 | 890
7 | C[C@H]1Oc2cc(cnc2N)-c2cc(S(C)(=O)=O)ccc2CN(C)Cc2ccc(F)cc21 [Example 35, (5R)-3-fluoro-5,17-dimethyl-13-(methylsulfonyl)-5,16,17,18-tetrahydro-7,11-(metheno)dibenzo[g,l][1,4,10]oxadiazacyclotetradecin-8-amine] | < 0.261 | 0.98 | 1.1 | 14.3
8 | C[C@H]1Oc2cc(cnc2N)-c2c(nn(C)c2C#N)CN(C)Cc2ccc(F)cc21 [Example 36, (10R)-7-amino-12-fluoro-2,10,16-trimethyl-10,15,16,17-tetrahydro-2H-4,8-(metheno)pyrazolo[4,3-h][2,5,11]benzoxadiazacyclotetradecine-3-carbonitrile] | < 0.2 | 0.18 | 0.56 | 2.64
9 | Cc1n[nH]c2c1-c1cnc(N)c(c1)OCc1cc(F)ccc1OCCC2 [Example 38, 12-fluoro-3-methyl-1,16,17,18-tetrahydro-10H-8,4-(metheno)pyrazolo[3,4-e][1,12,9]benzodioxazacyclopentadecin-7-amine] | 0.61 | 12 | 5.7 | 201

More lines, now with the values ahead:

Row | Ki [1] [nM] | IC50 [2] [nM] | Ki [3] [nM] | IC50 [4] [nM] | SMILES
10 | 3.1 | 95.6 | 1.9 | 109 | CC1Oc2cc(F)ccc2C(=O)N(C)Cc2nn(C)c(C#N)c2-c2cnc(N)c1c2 (single isomer, unassigned) [Example 76, 7-amino-12-fluoro-2,9,16-trimethyl-15-oxo-2,15,16,17-tetrahydro-9H-8,4-(metheno)pyrazolo[4,3-h][1,5,11]benzoxadiazacyclotetradecine-3-carbonitrile]
11 | 75 | 3390 | 45.8 | 3320 | CC1Oc2cc(F)ccc2C(=O)N(C)Cc2nn(C)c(C#N)c2-c2cnc(N)c1c2 (single isomer, unassigned) [Example 77, 7-amino-12-fluoro-2,9,16-trimethyl-15-oxo-2,15,16,17-tetrahydro-9H-8,4-(metheno)pyrazolo[4,3-h][1,5,11]benzoxadiazacyclotetradecine-3-carbonitrile]
12 | 1.18 | 42.8 | 2.9 | 180 | CC1c2nn(C)c(C#N)c2-c2cnc(N)c(n2)OCc2cc(F)ccc2C(=O)N1C (single isomer, unassigned) [Example 79, 7-amino-12-fluoro-2,16,17-trimethyl-15-oxo-10,15,16,17-tetrahydro-2H-8,4-(azeno)pyrazolo[4,3-h][2,5,11]benzoxadiazacyclotetradecine-3-carbonitrile]
13 | 0.07 | 0.55 | 0.13 | 6.72 | CN1Cc2nn(C)c(C#N)c2-c2cnc(N)c(c2)OC(CF)c2cc(F)ccc2C1=O (single isomer, unassigned) [Example 85, 7-amino-12-fluoro-10-(fluoromethyl)-2,16-dimethyl-15-oxo-10,15,16,17-tetrahydro-2H-8,4-(metheno)pyrazolo[4,3-h][2,5,11]benzoxadiazacyclotetradecine-3-carbonitrile]
14 | < 0.2 | 0.45 | 0.1 | 2.57 | COc1nn(C)c2c1-c1cnc(N)c(c1)OC(CF)c1cc(F)ccc1C(=O)N(C)C2 (single isomer, unassigned) [Example 86, 7-amino-12-fluoro-10-(fluoromethyl)-3-methoxy-1,16-dimethyl-16,17-dihydro-1H-8,4-(metheno)pyrazolo[4,3-h][2,5,11]benzoxadiazacyclotetradecin-15(10H)-one]
15 | 3 | 115 | 16.7 | 642 | CC1Oc2nc(cnc2N)-c2c(nn(C)c2C#N)COCc2ccc(F)cc21 (single isomer, unassigned) [Example 105, 7-amino-12-fluoro-2,10-dimethyl-2,10,15,17-tetrahydro-8,4-(azeno)pyrazolo[4,3-h][2,11,5]benzodioxazacyclotetradecine-3-carbonitrile]
16 | < 0.06 | 0.068 | < 0.05 | 0.5 | CC1Oc2nc(cnc2N)-c2c(nn(C)c2C#N)Cn2ccnc2-c2ccc(F)cc21 (single isomer, unassigned) [Example 108, 8-amino-3-fluoro-5,13-dimethyl-13,15-dihydro-5H-7,11-(azeno)imidazo[1,2-k]pyrazolo[4,3-h][2,5,11]benzoxadiazacyclotetradecine-12-carbonitrile]
17 | 8.1 | 11 | 4.7 | 55.6 | CC1Oc2nc(cnc2N)-c2c(nn(C)c2C#N)Cn2ccnc2-c2ccc(F)cc21 (single isomer, unassigned) [Example 109, 8-amino-3-fluoro-5,13-dimethyl-13,15-dihydro-5H-7,11-(azeno)imidazo[1,2-k]pyrazolo[4,3-h][2,5,11]benzoxadiazacyclotetradecine-12-carbonitrile]
18 | 0.27 | 9.27 | 0.7 | 52.3 | COc1nn(C)c2c1-c1cnc(N)c(n1)OCc1cc(F)ccc1C(=O)N(C)C2C (single isomer, unassigned) [Example 122, 7-amino-12-fluoro-3-methoxy-1,16,17-trimethyl-16,17-dihydro-1H-8,4-(azeno)pyrazolo[4,3-h][2,5,11]benzoxadiazacyclotetradecin-15(10H)-one]
19 | 205 | 4790 | 333 | > 10000 | COc1nn(C)c2c1-c1cnc(N)c(n1)OCc1cc(F)ccc1C(=O)N(C)C2C (single isomer, unassigned) [Example 123, 7-amino-12-fluoro-3-methoxy-1,16,17-trimethyl-16,17-dihydro-1H-8,4-(azeno)pyrazolo[4,3-h][2,5,11]benzoxadiazacyclotetradecin-15(10H)-one]
20 | 0.099 | 2.5 | 0.52 | 65 | CN1Cc2c(c(C#N)nn2C)-c2cnc(N)c(n2)OC(CF)c2ccccc2C1=O (single isomer, unassigned) [Example 127]
21 | 1.5 | 33.1 | 19 | 680 | CCCn1nnc2c1-c1cnc(N)c(c1)O[C@H](C)c1cc(F)ccc1C(=O)N(C)C2 [Example 41, (10R)-7-amino-12-fluoro-10,16-dimethyl-3-propyl-16,17-dihydro-3H-8,4-(metheno)[1,2,3]triazolo[4,5-h][2,5,11]benzoxadiazacyclotetradecin-15(10H)-one]
22 | 0.15 | 10.4 | 1.1 | 44.7 | CN1Cc2nn(C)c(C#N)c2-c2cnc(N)c(n2)OCc2cc(F)ccc2C1=O [Example 46, 7-amino-12-fluoro-2,16-dimethyl-15-oxo-10,15,16,17-tetrahydro-2H-8,4-(azeno)pyrazolo[4,3-h][2,5,11]benzoxadiazacyclotetradecine-3-carbonitrile]
